Source: the kinase profiling compilation of Christmann-Franck et al. (2016)
Several values for one entry are separate records, joined by “and”; a condition that tells them apart may be missing. Identical values can stand only once.

target: MAP3K5 (human) (UniProt Q99683); experiment: radiometric filter-binding kinase assay, Kinase HotSpot; settings: compound 0.5 µM; ATP 10 µM

Row | SMILES | residual activity [%]
1 | CCc1nc(-c2ccc(OC)cc2)[nH]c1-c1ccncc1 | 105
2 | Cc1cc(Nc2nc(-c3ccccc3)nc3ccccc23)n[nH]1 | 99.5
3 | O=c1c(-c2ccc(F)cc2)c(-c2ccncc2)[nH]n1-c1ccc(Cl)cc1 | 115
4 | O=S(=O)(NCCNC/C=C/c1ccc(Br)cc1)c1cccc2cnccc12 | 93.2

target: AURKC (human) (UniProt Q9UQB9); experiment: as above; settings: compound 0.5 µM; ATP 10 µM

Row | SMILES | residual activity [%]
5 | CCc1nc(-c2ccc(OC)cc2)[nH]c1-c1ccncc1 | 97.4
6 | Cc1cc(Nc2nc(-c3ccccc3)nc3ccccc23)n[nH]1 | 51.8
7 | O=c1c(-c2ccc(F)cc2)c(-c2ccncc2)[nH]n1-c1ccc(Cl)cc1 | 100
8 | O=S(=O)(NCCNC/C=C/c1ccc(Br)cc1)c1cccc2cnccc12 | 89

target: TYRO3 (human) (UniProt Q06418); experiment: as above; settings: compound 0.5 µM; ATP 10 µM
Sequence (Q06418 whole entry, looked up): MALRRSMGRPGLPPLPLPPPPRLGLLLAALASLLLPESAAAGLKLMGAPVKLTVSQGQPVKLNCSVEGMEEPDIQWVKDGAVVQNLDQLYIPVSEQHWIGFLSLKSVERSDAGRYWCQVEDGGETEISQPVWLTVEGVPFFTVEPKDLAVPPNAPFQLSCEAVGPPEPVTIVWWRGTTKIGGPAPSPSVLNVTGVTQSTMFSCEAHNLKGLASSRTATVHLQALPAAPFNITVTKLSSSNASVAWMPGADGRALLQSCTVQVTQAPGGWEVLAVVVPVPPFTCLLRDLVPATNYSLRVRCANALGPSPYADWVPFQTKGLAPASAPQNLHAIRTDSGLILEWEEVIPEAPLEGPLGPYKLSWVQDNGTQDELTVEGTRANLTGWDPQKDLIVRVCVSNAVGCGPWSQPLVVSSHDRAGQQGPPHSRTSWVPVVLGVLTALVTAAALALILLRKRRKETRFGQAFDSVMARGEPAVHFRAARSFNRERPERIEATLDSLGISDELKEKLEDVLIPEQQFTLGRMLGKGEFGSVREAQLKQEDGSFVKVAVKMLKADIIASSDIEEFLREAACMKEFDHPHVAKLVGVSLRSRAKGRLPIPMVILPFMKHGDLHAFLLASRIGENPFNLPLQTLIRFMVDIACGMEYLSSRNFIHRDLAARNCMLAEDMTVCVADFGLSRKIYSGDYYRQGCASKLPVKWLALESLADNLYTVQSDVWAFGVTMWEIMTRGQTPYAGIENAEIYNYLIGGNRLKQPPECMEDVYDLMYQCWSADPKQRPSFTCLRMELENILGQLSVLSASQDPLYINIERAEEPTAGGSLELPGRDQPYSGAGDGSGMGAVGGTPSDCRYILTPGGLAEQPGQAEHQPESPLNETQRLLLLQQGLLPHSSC

Row | SMILES | residual activity [%]
9 | CCc1nc(-c2ccc(OC)cc2)[nH]c1-c1ccncc1 | 97.9
10 | Cc1cc(Nc2nc(-c3ccccc3)nc3ccccc23)n[nH]1 | 94.2
11 | O=c1c(-c2ccc(F)cc2)c(-c2ccncc2)[nH]n1-c1ccc(Cl)cc1 | 105
12 | O=S(=O)(NCCNC/C=C/c1ccc(Br)cc1)c1cccc2cnccc12 | 93.9

target: PASK (human) (UniProt Q96RG2); experiment: as above; settings: compound 0.5 µM; ATP 10 µM

Row | SMILES | residual activity [%]
13 | CCc1nc(-c2ccc(OC)cc2)[nH]c1-c1ccncc1 | 96.3
14 | Cc1cc(Nc2nc(-c3ccccc3)nc3ccccc23)n[nH]1 | 96.4
15 | O=c1c(-c2ccc(F)cc2)c(-c2ccncc2)[nH]n1-c1ccc(Cl)cc1 | 93.6
16 | O=S(=O)(NCCNC/C=C/c1ccc(Br)cc1)c1cccc2cnccc12 | 94.5

target: TXK (human) (UniProt P42681); experiment: as above; settings: compound 0.5 µM; ATP 10 µM
Sequence (P42681 whole entry, looked up): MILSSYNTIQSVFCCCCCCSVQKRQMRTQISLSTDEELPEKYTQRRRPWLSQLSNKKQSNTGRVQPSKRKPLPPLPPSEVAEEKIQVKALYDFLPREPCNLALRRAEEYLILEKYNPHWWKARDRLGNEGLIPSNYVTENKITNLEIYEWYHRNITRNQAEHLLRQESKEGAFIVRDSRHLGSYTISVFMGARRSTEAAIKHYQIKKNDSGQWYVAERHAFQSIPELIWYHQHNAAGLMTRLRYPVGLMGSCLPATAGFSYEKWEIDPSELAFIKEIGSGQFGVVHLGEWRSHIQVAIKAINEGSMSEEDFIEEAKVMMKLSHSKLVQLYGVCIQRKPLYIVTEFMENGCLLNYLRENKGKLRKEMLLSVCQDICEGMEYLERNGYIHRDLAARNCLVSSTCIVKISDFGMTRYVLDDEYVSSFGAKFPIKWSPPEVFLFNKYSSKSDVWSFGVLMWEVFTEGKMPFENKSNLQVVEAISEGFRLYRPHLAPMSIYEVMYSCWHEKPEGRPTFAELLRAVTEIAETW

Row | SMILES | residual activity [%]
17 | CCc1nc(-c2ccc(OC)cc2)[nH]c1-c1ccncc1 | 100
18 | Cc1cc(Nc2nc(-c3ccccc3)nc3ccccc23)n[nH]1 | 45.3
19 | O=c1c(-c2ccc(F)cc2)c(-c2ccncc2)[nH]n1-c1ccc(Cl)cc1 | 94.4
20 | O=S(=O)(NCCNC/C=C/c1ccc(Br)cc1)c1cccc2cnccc12 | 86.8

target: TAOK3 (human) (UniProt Q9H2K8); experiment: as above; settings: compound 0.5 µM; ATP 10 µM

Row | SMILES | residual activity [%]
21 | CCc1nc(-c2ccc(OC)cc2)[nH]c1-c1ccncc1 | 107
22 | Cc1cc(Nc2nc(-c3ccccc3)nc3ccccc23)n[nH]1 | 86.9
23 | O=c1c(-c2ccc(F)cc2)c(-c2ccncc2)[nH]n1-c1ccc(Cl)cc1 | 89.5
24 | O=S(=O)(NCCNC/C=C/c1ccc(Br)cc1)c1cccc2cnccc12 | 95.4

target: CSF1R (human) (UniProt P07333); experiment: as above; settings: compound 0.5 µM; ATP 10 µM
Sequence (P07333 whole entry, looked up): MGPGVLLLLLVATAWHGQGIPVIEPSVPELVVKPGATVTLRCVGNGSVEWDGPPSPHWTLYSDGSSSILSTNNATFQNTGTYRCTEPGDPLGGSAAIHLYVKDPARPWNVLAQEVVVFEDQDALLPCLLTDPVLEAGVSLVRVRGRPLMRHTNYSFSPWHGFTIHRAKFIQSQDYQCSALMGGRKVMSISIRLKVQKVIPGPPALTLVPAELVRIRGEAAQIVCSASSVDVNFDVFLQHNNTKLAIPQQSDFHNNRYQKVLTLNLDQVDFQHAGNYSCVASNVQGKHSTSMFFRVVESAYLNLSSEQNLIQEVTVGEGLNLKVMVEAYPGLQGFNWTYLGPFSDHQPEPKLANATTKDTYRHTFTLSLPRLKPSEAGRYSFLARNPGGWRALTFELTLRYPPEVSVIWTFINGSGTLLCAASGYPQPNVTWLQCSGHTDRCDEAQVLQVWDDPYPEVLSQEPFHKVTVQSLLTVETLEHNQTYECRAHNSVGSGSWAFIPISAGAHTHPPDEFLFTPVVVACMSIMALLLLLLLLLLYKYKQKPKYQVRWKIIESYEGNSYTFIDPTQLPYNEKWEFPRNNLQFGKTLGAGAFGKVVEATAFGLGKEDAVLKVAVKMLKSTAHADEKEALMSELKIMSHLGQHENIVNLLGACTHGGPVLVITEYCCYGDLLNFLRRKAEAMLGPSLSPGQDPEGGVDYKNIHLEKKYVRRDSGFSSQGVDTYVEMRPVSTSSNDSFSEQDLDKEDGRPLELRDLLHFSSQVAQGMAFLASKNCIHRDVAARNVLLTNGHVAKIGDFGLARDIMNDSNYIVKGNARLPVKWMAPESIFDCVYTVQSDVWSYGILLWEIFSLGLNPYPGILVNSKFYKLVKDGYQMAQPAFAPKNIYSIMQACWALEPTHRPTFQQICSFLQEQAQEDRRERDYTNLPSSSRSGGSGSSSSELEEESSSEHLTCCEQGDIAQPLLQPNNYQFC

Row | SMILES | residual activity [%]
25 | CCc1nc(-c2ccc(OC)cc2)[nH]c1-c1ccncc1 | 100
26 | Cc1cc(Nc2nc(-c3ccccc3)nc3ccccc23)n[nH]1 | 33.1
27 | O=c1c(-c2ccc(F)cc2)c(-c2ccncc2)[nH]n1-c1ccc(Cl)cc1 | 102
28 | O=S(=O)(NCCNC/C=C/c1ccc(Br)cc1)c1cccc2cnccc12 | 97.7

target: PRKCB1 (human) (UniProt P05771); experiment: as above; settings: compound 0.5 µM; ATP 10 µM
Sequence (P05771 whole entry, looked up): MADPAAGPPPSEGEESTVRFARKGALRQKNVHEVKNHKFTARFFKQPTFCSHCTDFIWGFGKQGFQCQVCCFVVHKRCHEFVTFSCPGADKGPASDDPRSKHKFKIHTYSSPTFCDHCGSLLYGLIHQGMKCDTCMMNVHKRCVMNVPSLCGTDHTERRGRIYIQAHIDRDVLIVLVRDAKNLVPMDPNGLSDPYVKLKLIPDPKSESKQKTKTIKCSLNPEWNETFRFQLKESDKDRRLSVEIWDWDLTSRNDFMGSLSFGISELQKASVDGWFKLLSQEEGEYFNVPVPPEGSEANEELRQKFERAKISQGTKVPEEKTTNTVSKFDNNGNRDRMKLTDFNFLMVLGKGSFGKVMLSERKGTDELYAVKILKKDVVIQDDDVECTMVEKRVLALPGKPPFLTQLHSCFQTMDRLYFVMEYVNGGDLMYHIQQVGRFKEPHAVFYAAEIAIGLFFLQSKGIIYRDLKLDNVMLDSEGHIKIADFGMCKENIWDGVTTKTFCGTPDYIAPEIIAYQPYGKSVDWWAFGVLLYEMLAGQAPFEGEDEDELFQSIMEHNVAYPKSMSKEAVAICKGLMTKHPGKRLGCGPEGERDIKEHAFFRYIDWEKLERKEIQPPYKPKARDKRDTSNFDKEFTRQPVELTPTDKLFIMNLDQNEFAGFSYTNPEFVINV

Row | SMILES | residual activity [%]
29 | CCc1nc(-c2ccc(OC)cc2)[nH]c1-c1ccncc1 | 104
30 | Cc1cc(Nc2nc(-c3ccccc3)nc3ccccc23)n[nH]1 | 99.9
31 | O=c1c(-c2ccc(F)cc2)c(-c2ccncc2)[nH]n1-c1ccc(Cl)cc1 | 84.7
32 | O=S(=O)(NCCNC/C=C/c1ccc(Br)cc1)c1cccc2cnccc12 | 88.3

target: EPHA1 (human) (UniProt P21709); experiment: as above; settings: compound 0.5 µM; ATP 10 µM

Row | SMILES | residual activity [%]
33 | CCc1nc(-c2ccc(OC)cc2)[nH]c1-c1ccncc1 | 116
34 | Cc1cc(Nc2nc(-c3ccccc3)nc3ccccc23)n[nH]1 | 69.9
35 | O=c1c(-c2ccc(F)cc2)c(-c2ccncc2)[nH]n1-c1ccc(Cl)cc1 | 93.1
36 | O=S(=O)(NCCNC/C=C/c1ccc(Br)cc1)c1cccc2cnccc12 | 83.7

target: SRPK3 (human) (UniProt Q9UPE1); experiment: as above; settings: compound 0.5 µM; ATP 10 µM

Row | SMILES | residual activity [%]
37 | CCc1nc(-c2ccc(OC)cc2)[nH]c1-c1ccncc1 | 102
38 | Cc1cc(Nc2nc(-c3ccccc3)nc3ccccc23)n[nH]1 | 61.5
39 | O=c1c(-c2ccc(F)cc2)c(-c2ccncc2)[nH]n1-c1ccc(Cl)cc1 | 92.2
40 | O=S(=O)(NCCNC/C=C/c1ccc(Br)cc1)c1cccc2cnccc12 | 98

target: FES (human) (UniProt P07332); experiment: as above; settings: compound 0.5 µM; ATP 10 µM

Row | SMILES | residual activity [%]
41 | CCc1nc(-c2ccc(OC)cc2)[nH]c1-c1ccncc1 | 100
42 | Cc1cc(Nc2nc(-c3ccccc3)nc3ccccc23)n[nH]1 | 94.7
43 | O=c1c(-c2ccc(F)cc2)c(-c2ccncc2)[nH]n1-c1ccc(Cl)cc1 | 92.3
44 | O=S(=O)(NCCNC/C=C/c1ccc(Br)cc1)c1cccc2cnccc12 | 115

target: DYRK4 (human) (UniProt Q9NR20); experiment: as above; settings: compound 0.5 µM; ATP 10 µM

Row | SMILES | residual activity [%]
45 | CCc1nc(-c2ccc(OC)cc2)[nH]c1-c1ccncc1 | 100
46 | Cc1cc(Nc2nc(-c3ccccc3)nc3ccccc23)n[nH]1 | 103
47 | O=c1c(-c2ccc(F)cc2)c(-c2ccncc2)[nH]n1-c1ccc(Cl)cc1 | 81.5
48 | O=S(=O)(NCCNC/C=C/c1ccc(Br)cc1)c1cccc2cnccc12 | 96.4

target: ACVRL1 (human) (UniProt P37023); experiment: as above; settings: compound 0.5 µM; ATP 10 µM

Row | SMILES | residual activity [%]
49 | CCc1nc(-c2ccc(OC)cc2)[nH]c1-c1ccncc1 | 101
50 | Cc1cc(Nc2nc(-c3ccccc3)nc3ccccc23)n[nH]1 | 115
51 | O=c1c(-c2ccc(F)cc2)c(-c2ccncc2)[nH]n1-c1ccc(Cl)cc1 | 88.1
52 | O=S(=O)(NCCNC/C=C/c1ccc(Br)cc1)c1cccc2cnccc12 | 119

target: PLK1 (human) (UniProt P53350); experiment: as above; settings: compound 0.5 µM; ATP 10 µM

Row | SMILES | residual activity [%]
53 | CCc1nc(-c2ccc(OC)cc2)[nH]c1-c1ccncc1 | 103
54 | Cc1cc(Nc2nc(-c3ccccc3)nc3ccccc23)n[nH]1 | 97.1
55 | O=c1c(-c2ccc(F)cc2)c(-c2ccncc2)[nH]n1-c1ccc(Cl)cc1 | 98.3
56 | O=S(=O)(NCCNC/C=C/c1ccc(Br)cc1)c1cccc2cnccc12 | 98.7

target: DAPK1 (human) (UniProt P53355); experiment: as above; settings: compound 0.5 µM; ATP 10 µM

Row | SMILES | residual activity [%]
57 | CCc1nc(-c2ccc(OC)cc2)[nH]c1-c1ccncc1 | 97.4
58 | Cc1cc(Nc2nc(-c3ccccc3)nc3ccccc23)n[nH]1 | 39.1
59 | O=c1c(-c2ccc(F)cc2)c(-c2ccncc2)[nH]n1-c1ccc(Cl)cc1 | 84.5
60 | O=S(=O)(NCCNC/C=C/c1ccc(Br)cc1)c1cccc2cnccc12 | 81.5

target: LYN (human) (UniProt P07948); experiment: as above; settings: compound 0.5 µM; ATP 10 µM

Row | SMILES | residual activity
61 | CCc1nc(-c2ccc(OC)cc2)[nH]c1-c1ccncc1 | 101% and 103%
62 | Cc1cc(Nc2nc(-c3ccccc3)nc3ccccc23)n[nH]1 | 79.9% and 88.7%
63 | O=c1c(-c2ccc(F)cc2)c(-c2ccncc2)[nH]n1-c1ccc(Cl)cc1 | 97.5% and 99.7%
64 | O=S(=O)(NCCNC/C=C/c1ccc(Br)cc1)c1cccc2cnccc12 | 101% and 126%

target: SLK (human) (UniProt Q9H2G2); experiment: as above; settings: compound 0.5 µM; ATP 10 µM
Sequence (Q9H2G2 whole entry, looked up): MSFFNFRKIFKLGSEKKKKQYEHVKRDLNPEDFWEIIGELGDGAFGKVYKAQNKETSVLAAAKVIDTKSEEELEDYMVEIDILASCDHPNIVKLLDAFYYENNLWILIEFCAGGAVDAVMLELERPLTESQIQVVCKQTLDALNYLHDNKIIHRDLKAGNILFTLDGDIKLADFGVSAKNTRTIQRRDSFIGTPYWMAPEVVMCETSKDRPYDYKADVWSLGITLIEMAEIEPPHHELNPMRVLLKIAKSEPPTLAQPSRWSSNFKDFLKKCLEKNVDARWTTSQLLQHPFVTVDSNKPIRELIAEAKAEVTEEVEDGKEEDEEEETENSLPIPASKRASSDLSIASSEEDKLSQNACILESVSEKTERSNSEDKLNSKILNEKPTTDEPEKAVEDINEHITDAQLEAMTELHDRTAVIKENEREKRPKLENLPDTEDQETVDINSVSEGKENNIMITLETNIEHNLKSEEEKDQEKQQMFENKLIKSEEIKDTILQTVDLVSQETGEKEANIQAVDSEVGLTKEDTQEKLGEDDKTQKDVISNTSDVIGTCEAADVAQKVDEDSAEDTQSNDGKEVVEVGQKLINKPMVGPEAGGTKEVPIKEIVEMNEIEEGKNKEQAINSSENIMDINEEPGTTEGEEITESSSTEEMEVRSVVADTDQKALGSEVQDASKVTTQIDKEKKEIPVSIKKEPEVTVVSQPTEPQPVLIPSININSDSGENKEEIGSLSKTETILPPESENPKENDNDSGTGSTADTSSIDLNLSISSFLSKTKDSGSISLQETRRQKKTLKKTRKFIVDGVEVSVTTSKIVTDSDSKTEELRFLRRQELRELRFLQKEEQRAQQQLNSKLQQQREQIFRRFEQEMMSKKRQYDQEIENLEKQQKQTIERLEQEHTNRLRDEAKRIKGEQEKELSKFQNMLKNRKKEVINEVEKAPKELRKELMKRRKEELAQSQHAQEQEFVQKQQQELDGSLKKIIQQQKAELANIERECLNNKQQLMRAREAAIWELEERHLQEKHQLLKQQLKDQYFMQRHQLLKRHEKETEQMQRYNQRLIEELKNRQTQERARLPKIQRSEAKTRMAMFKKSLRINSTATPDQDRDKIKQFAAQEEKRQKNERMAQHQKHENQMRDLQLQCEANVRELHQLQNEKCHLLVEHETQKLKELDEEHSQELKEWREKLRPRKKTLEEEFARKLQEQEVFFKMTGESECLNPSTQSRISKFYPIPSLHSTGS

Row | SMILES | residual activity [%]
65 | CCc1nc(-c2ccc(OC)cc2)[nH]c1-c1ccncc1 | 99.7
66 | Cc1cc(Nc2nc(-c3ccccc3)nc3ccccc23)n[nH]1 | 42.2
67 | O=c1c(-c2ccc(F)cc2)c(-c2ccncc2)[nH]n1-c1ccc(Cl)cc1 | 98.2
68 | O=S(=O)(NCCNC/C=C/c1ccc(Br)cc1)c1cccc2cnccc12 | 93

target: RPS6KA5 KD2 (human) (UniProt O75582); experiment: as above; settings: compound 0.5 µM; ATP 10 µM

Row | SMILES | residual activity [%]
69 | CCc1nc(-c2ccc(OC)cc2)[nH]c1-c1ccncc1 | 107
70 | Cc1cc(Nc2nc(-c3ccccc3)nc3ccccc23)n[nH]1 | 70.5
71 | O=c1c(-c2ccc(F)cc2)c(-c2ccncc2)[nH]n1-c1ccc(Cl)cc1 | 93.5
72 | O=S(=O)(NCCNC/C=C/c1ccc(Br)cc1)c1cccc2cnccc12 | 39.4

target: RPS6KA1 KD1 KD2 (human) (UniProt Q15418); experiment: as above; settings: compound 0.5 µM; ATP 10 µM

Row | SMILES | residual activity [%]
73 | CCc1nc(-c2ccc(OC)cc2)[nH]c1-c1ccncc1 | 106
74 | Cc1cc(Nc2nc(-c3ccccc3)nc3ccccc23)n[nH]1 | 58
75 | O=c1c(-c2ccc(F)cc2)c(-c2ccncc2)[nH]n1-c1ccc(Cl)cc1 | 103
76 | O=S(=O)(NCCNC/C=C/c1ccc(Br)cc1)c1cccc2cnccc12 | 68.4

target: NUAK2 (human) (UniProt Q9H093); experiment: as above; settings: compound 0.5 µM; ATP 10 µM
Sequence (Q9H093 whole entry, looked up): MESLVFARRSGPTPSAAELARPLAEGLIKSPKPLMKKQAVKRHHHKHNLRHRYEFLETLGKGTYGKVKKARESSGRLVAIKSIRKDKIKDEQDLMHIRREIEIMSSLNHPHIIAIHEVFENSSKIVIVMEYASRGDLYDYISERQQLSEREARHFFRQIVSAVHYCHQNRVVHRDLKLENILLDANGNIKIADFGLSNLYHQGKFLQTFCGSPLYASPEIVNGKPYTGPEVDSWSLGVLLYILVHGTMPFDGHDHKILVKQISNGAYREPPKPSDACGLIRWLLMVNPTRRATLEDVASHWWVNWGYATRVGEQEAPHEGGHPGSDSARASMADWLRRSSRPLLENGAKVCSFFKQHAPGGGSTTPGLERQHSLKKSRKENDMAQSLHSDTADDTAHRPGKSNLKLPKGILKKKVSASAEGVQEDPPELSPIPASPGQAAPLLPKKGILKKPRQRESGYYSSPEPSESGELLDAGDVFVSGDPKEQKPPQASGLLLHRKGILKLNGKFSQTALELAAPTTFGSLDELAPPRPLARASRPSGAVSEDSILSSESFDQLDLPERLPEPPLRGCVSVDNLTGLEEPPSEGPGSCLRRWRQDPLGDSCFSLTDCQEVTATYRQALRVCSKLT

Row | SMILES | residual activity [%]
77 | CCc1nc(-c2ccc(OC)cc2)[nH]c1-c1ccncc1 | 129
78 | Cc1cc(Nc2nc(-c3ccccc3)nc3ccccc23)n[nH]1 | 71.1
79 | O=c1c(-c2ccc(F)cc2)c(-c2ccncc2)[nH]n1-c1ccc(Cl)cc1 | 88.7
80 | O=S(=O)(NCCNC/C=C/c1ccc(Br)cc1)c1cccc2cnccc12 | 78.1

target: LIMK1 (human) (UniProt P53667); experiment: as above; settings: compound 0.5 µM; ATP 10 µM

Row | SMILES | residual activity [%]
81 | CCc1nc(-c2ccc(OC)cc2)[nH]c1-c1ccncc1 | 94.9
82 | Cc1cc(Nc2nc(-c3ccccc3)nc3ccccc23)n[nH]1 | 59.6
